# How the values were obtained:
# [1] = target: T1, human GHS receptor (Homo sapiens, UniProt Q92847); assay: Ghrelin IP1 agonist assay (IP1 HTRF); type: cell-based; parameters: expressed in transfected cells; host or cells: HEK293s; conditions: for Emax: 2 h, agonist effect as % maximal effect of GHRP-6 (5 μM), read-out: h IP1 ag %; for EC50: HEK293s cells stably expressing human GHS receptor, 2 hours at 37° C., read-out: h IP1 ag EC50
# Method: In HEK293s cells stably expressing human GHS receptor (In-house), agonist activity was assessed by measuring intracellular myo-Inositol 1 phosphate (IP1) using the IP1 HTRF assay kit (Cisbio International).
# Cells were harvested using accutase (Sigma), spun down at 1000 rpm for 5 minutes and resuspended in stimulation buffer (as above) containing 0.02% fatty acid free BSA at a density of 1.43E6cells/ml.
# Agonist effect of the compound was expressed as % maximal effect of GHRP-6 (5 μM: Bachem). Sigmoidal curves were fitted by Origin 7.5 Client and EC50 values determined.
# [2] = target: T1, human GHS receptor; assay: h bind IC50 (binding assay, Table 1); conditions: for IC50: human receptor, Table 1
# T1 sequence (Q92847 whole entry): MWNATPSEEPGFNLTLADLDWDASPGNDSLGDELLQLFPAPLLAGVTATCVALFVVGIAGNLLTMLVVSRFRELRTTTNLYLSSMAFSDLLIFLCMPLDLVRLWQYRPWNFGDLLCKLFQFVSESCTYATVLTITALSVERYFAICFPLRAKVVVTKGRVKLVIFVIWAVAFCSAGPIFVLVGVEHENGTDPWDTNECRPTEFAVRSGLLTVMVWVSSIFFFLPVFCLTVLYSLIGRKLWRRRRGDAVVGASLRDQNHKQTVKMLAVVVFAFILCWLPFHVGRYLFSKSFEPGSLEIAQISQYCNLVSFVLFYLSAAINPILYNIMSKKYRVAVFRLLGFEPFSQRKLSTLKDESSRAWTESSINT
Structure (SMILES),Emax [1],EC50 [1],IC50 [2],IC50 in the binding assay [2]
"CN1CCN(c2ccc(Cl)c(C(=O)NC(=O)Nc3nc4ccc(S(C)(=O)=O)cc4s3)c2)CC1 [Example 59, 2-Chloro-5-(4-methylpiperazin-1-yl)-N-(6-(methylsulfonyl)benzothiazol-2-ylcarbamoyl)benzamide]",0.377%,> 9.3 µM,0.207 µM,
"CS(=O)(=O)c1ccc2nc(NC(=O)NC(=O)c3cc(-n4cccn4)ccc3Cl)sc2c1 [Example 46, 2-Chloro-5-(pyrazol-1-yl)-N-(6-(methylsulfonyl)benzothiazol-2-ylcarbamoyl)benzamide]",0.5%,8.24 µM,0.012 µM,
"CN1CCC(Oc2ccc(Cl)c(C(=O)NC(=O)Nc3nc4ccc(S(C)(=O)=O)cc4s3)c2)CC1 [Example 244, 2-chloro-5-(1-methylpiperidin-4-yloxy)-N-(6-(methylsulfonyl)benzo[d]thiazol-2-ylcarbamoyl) benzamide]",22.6%,19.7 µM,2.06 µM,
"CN(C)C1CCCN(c2ccc(Cl)c(C(=O)NC(=O)Nc3nc4ccc(S(C)(=O)=O)cc4s3)c2)C1 (stereo not shown) [Example 268, 2-Chloro-5-(3-dimethylamino-1-piperidyl)-N-[(6-methylsulfonyl-1,3-benzothiazol-2-yl)carbamoyl]benzamide]",11.3%,7.32 µM,0.965 µM,
"CN(C)C1CCN(c2ccc(Cl)c(C(=O)NC(=O)Nc3nc4ccc(S(C)(=O)=O)cc4s3)c2)C1 (stereo not shown) [Example 60, 2-Chloro-5-(3-(dimethylamino)pyrrolidin-1-yl)-N-(6-(methylsulfonyl)benzothiazol-2-ylcarbamoyl)benzamide]",0.647%,> 25 µM,0.033 µM,
"CCN(CC)C1CCN(c2ccc(Cl)c(C(=O)NC(=O)Nc3nc4ccc(S(C)(=O)=O)cc4s3)c2)C1 (stereo not shown) [Example 239, 2-chloro-5-(3-(diethylamino)pyrrolidin-1-yl)-N-(6-(methylsulfonyl)benzo[d]thiazol-2-ylcarbamoyl) benzamide]",0%,≥ 20 µM,0.15 µM,
"CS(=O)(=O)c1ccc2nc(NC(=O)NC(=O)c3ccc(Cl)cc3Cl)sc2c1 [Example 179, 2,4-Dichloro-N-[(6-methylsulfonylbenzothiazol-2-yl)carbamoyl]benzamide]",61.2%,0.00591 µM,0.0183 µM,
"CCN1CCN(CCCS(=O)(=O)c2ccc3nc(NC(=O)NC(=O)c4ccccc4Cl)sc3c2)CC1 [Example 197, 2-Chloro-N-[[6-[3-(4-ethylpiperazin-1-yl)propylsulfonyl]benzothiazol-2-yl]carbamoyl]benzamide]",55.8%,0.00202 µM,0.0004 µM,
"O=C(NC(=O)c1ccccc1Cl)Nc1nc2ccc(S(=O)(=O)Cc3ccccn3)cc2s1 [Example 178, 2-Chloro-N-[[6-(pyridin-2-ylmethylsulfonyl)benzothiazol-2-yl]carbamoyl]benzamide]",18.7%,0.0777 µM,0.107 µM,
"O=C(NC(=O)c1ccccc1Cl)Nc1nc2ccc(S(=O)(=O)CCN3CC[C@@H](F)C3)cc2s1 [Example 32, 2-Chloro-N-[[6-[2-[(3R)-3-fluoropyrrolidin-1-yl]ethylsulfonyl]benzothiazol-2-yl]carbamoyl]benzamide]",28%,0.309 µM,0.4 µM,
"CN1CCN(CCCS(=O)(=O)c2ccc3nc(NC(=O)NC(=O)c4cc(-c5ccccn5)ccc4Cl)sc3c2)CC1 [Example 86, 2-Chloro-N-(6-(3-(4-methylpiperazin-1-yl)propylsulfonyl)benzothiazol-2-ylcarbamoyl)-5-(pyridin-2-yl)benzamide]",0.64%,≥ 25 µM,0.0007 µM,
"CS(=O)(=O)c1ccc2nc(NC(=O)NC(=O)c3cc(OC4CCNC4)ccc3Cl)sc2c1 (stereo not shown) [Example 249, 2-chloro-N-(6-(methylsulfonyl)benzo[d]thiazol-2-ylcarbamoyl) 5-(pyrrolidin-3-yloxy)benzamide]",3.13%,4.9 µM,8.08 µM,
"O=C(NC(=O)c1ccccc1Cl)Nc1nc2ccc(S(=O)(=O)CCCN3CCCC3)cc2s1 [Example 149, 2-Chloro-N-[[6-(3-pyrrolidin-1-ylpropylsulfonyl)benzothiazol-2-yl]carbamoyl]benzamide]",,,0.0522 µM,
"CN(CCO)CCS(=O)(=O)c1ccc2nc(NC(=O)NC(=O)c3ccccc3Cl)sc2c1 [Example 11, 2-Chloro-N-[[6-[2-(2-hydroxyethyl-methyl-amino)ethylsulfonyl]benzothiazol-2-yl]carbamoyl]benzamide]",,,0.347 µM,
"CCC(C)NCCS(=O)(=O)c1ccc2nc(NC(=O)NC(=O)c3ccccc3Cl)sc2c1 (stereo not shown) [Example 12, N-[[6-[2-(Butan-2-ylamino)ethylsulfonyl]benzothiazol-2-yl]carbamoyl]-2-chloro-benzamide]",,,0.179 µM,
"O=C(NC(=O)c1cc(-n2cccc2)ccc1Cl)Nc1nc2ccc(S(=O)(=O)CCCN3CCC3)cc2s1 [Example 74, N-[[6-[3-(Azetidin-1-yl)propylsulfonyl]benzothiazol-2-yl]carbamoyl]-2-chloro-5-pyrrol-1-yl-benzamide]",,,0.001 µM,

Structure (SMILES),Emax [1],EC50 [1],IC50 [2],IC50 in the binding assay [2]
"O=C(NC(=O)c1ccccc1Cl)Nc1nc2ccc(S(=O)(=O)CCOCCO)cc2s1 [Example 121, 2-Chloro-N-[[6-[2-(2-hydroxyethoxy)ethylsulfonyl]benzothiazol-2-yl]carbamoyl]benzamide]",,,0.4 µM,
"O=C(NC(=O)c1ccccc1Cl)Nc1nc2ccc(S(=O)(=O)C3CCCN(CC4CC4)C3)cc2s1 (stereo not shown) [Example 143, 2-Chloro-N-[[6-[[1-(cyclopropylmethyl)-3-piperidyl]sulfonyl]benzothiazol-2-yl]carbamoyl]benzamide]",,,0.484 µM,
"O=C(NC(=O)c1ccccc1Cl)Nc1nc2ccc(S(=O)(=O)CCCN3CCC(F)(F)C3)cc2s1 [Example 154, 2-Chloro-N-[[6-[3-(3,3-difluoropyrrolidin-1-yl)propylsulfonyl]benzothiazol-2-yl]carbamoyl]benzamide]",,,0.117 µM,
"O=C(NC(=O)c1cc(-n2cccc2)ccc1Cl)Nc1nc2ccc(S(=O)(=O)CCN3CCC3)cc2s1 [Example 81, N-[[6-[2-(Azetidin-1-yl)ethylsulfonyl]benzothiazol-2-yl]carbamoyl]-2-chloro-5-pyrrol-1-yl-benzamide]",,,0.002 µM,
CS(=O)(=O)c1ccc2nc(NC(=O)NC(=O)c3cc(F)ccc3Cl)sc2c1 [2-chloro-5-fluoro-N-[(6-methylsulfonylbenzothiazol-2-yl)carbamoyl]benzamide],,,,did not have IC50s in the range of about 0.001 μM to about 10 μM
"O=C(NC(=O)c1ccccc1Cl)Nc1nc2ccc(S(=O)(=O)CCN3CCCC3)cc2s1 [Example 6, 2-Chloro-N-[[6-(2-pyrrolidin-1-ylethylsulfonyl)benzothiazol-2-yl]carbamoyl]benzamide]",,,0.0444 µM,
"CN1CCN(CCS(=O)(=O)c2ccc3nc(NC(=O)NC(=O)c4ccccc4Cl)sc3c2)CC1 [Example 23, 2-Chloro-N-[[6-[2-(4-methylpiperazin-1-yl)ethylsulfonyl]benzothiazol-2-yl]carbamoyl]benzamide]",,,0.0827 µM,
"CC1CN(CCS(=O)(=O)c2ccc3nc(NC(=O)NC(=O)c4ccccc4Cl)sc3c2)CC(C)O1 (stereo not shown) [Example 19, 2-Chloro-N-[[6-[2-(2,6-dimethylmorpholin-4-yl)ethylsulfonyl]benzothiazol-2-yl]carbamoyl]benzamide]",,,1.05 µM,
"O=C(NC(=O)c1ccccc1Cl)Nc1nc2ccc(S(=O)(=O)CCCN3CCC(F)C3)cc2s1 (stereo not shown) [Example 157, 2-Chloro-N-[[6-[3-(3-fluoropyrrolidin-1-yl)propylsulfonyl]benzothiazol-2-yl]carbamoyl]benzamide]",,,0.0785 µM,
"CC(C)NCCCS(=O)(=O)c1ccc2nc(NC(=O)NC(=O)c3cc(-n4cccc4)ccc3Cl)sc2c1 [Example 75, 2-Chloro-N-[[6-[3-(propan-2-ylamino)propylsulfonyl]benzothiazol-2-yl]carbamoyl]-5-pyrrol-1-yl-benzamide]",,,0.0074 µM,
"O=C(NC(=O)c1ccccc1Cl)Nc1nc2ccc(S(=O)(=O)CCN3CCC(O)C3)cc2s1 (stereo not shown) [Example 5, 2-Chloro-N-[[6-[2-(3-hydroxypyrrolidin-1-yl)ethylsulfonyl]benzothiazol-2-yl]carbamoyl]benzamide]",,,0.403 µM,
"O=C(NC(=O)c1ccccc1Cl)Nc1nc2ccc(S(=O)(=O)C[C@H]3CCCN3CC3CC3)cc2s1 [Example 156, 2-Chloro-N-[[6-[[(2R)-1-(cyclopropylmethyl)pyrrolidin-2-yl]methylsulfonyl]benzothiazol-2-yl]carbamoyl]benzamide]",,,0.064 µM,
"O=C(NC(=O)c1ccccc1Cl)Nc1nc2ccc(S(=O)(=O)CCCN3CCC(F)(F)CC3)cc2s1 [Example 158, 2-Chloro-N-[[6-[3-(4,4-difluoro-1-piperidyl)propylsulfonyl]benzothiazol-2-yl]carbamoyl]benzamide]",,,0.104 µM,
"CCN(CCOC)CCS(=O)(=O)c1ccc2nc(NC(=O)NC(=O)c3ccccc3Cl)sc2c1 [Example 15, 2-Chloro-N-[[6-[2-(ethyl-(2-methoxyethyl)amino)ethylsulfonyl]benzothiazol-2-yl]carbamoyl]benzamide]",,,1.08 µM,
"CN1CCC(S(=O)(=O)c2ccc3nc(NC(=O)NC(=O)c4ccccc4Cl)sc3c2)CC1 [Example 184, 2-Chloro-N-[[6-[(1-methyl-4-piperidyl)sulfonyl]benzothiazol-2-yl]carbamoyl]benzamide]",,,0.0337 µM,
